In patent US10870634B2, “Histone demethylase inhibitors” (CELGENE QUANTICEL RESEARCH, INC., priority 2016, dated 2020):

Target: T1, FBXL10 (Homo sapiens, UniProt Q8NHM5)
T1 construct: purchased BPS Bioscience 50120
T1 sequence (Q8NHM5 1-650): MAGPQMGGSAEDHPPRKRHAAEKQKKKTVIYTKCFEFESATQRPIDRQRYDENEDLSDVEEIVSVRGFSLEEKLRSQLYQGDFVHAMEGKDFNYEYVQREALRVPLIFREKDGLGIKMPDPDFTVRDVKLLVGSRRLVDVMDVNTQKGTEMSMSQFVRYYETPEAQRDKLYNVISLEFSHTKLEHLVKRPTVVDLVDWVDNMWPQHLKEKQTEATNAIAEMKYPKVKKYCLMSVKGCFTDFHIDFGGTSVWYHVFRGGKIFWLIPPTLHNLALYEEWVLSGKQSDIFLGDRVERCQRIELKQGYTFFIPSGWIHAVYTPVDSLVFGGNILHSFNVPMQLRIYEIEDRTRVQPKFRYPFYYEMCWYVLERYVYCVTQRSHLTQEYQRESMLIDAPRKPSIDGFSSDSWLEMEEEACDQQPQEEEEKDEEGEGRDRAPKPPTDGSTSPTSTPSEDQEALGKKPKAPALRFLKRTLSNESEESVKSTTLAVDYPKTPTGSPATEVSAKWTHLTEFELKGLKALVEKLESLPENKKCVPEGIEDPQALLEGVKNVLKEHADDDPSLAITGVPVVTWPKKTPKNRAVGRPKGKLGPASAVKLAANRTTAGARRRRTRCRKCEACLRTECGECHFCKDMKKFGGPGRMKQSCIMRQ
Assay: FBXL10 in vitro enzyme inhibition assay (AlphaScreen)
Assay type: biochemical
Conditions: 0.3 nM FBXL10, 30 nM H3K36me2-biotin peptide, 0.2 μM alpha-ketoglutaric acid
Text: This assay determines the ability of a test compound to inhibit FBXL11, FRXL10, and PHF8 demethylase activity. Baculovirus-expressed FBXL11 (GenBank Accession # NM_012308, AA1-1162) was purchased from BPS Bioscience (Cat #50102). Baculovirus-expressed FBXL10 (GenBank Accession # NM_032590, AA 1-650) was purchased from BPS Bioscience (Cat #50120), Baculovirus-expressed PHF8 (GenBank Accession NP_055922.1) was purchased from Active Motif (Cat #31435).
The ability of test compounds to inhibit the activity of FBXM10 was determined in 384-well plate format under the following reaction conditions: 0.3 nM FBXL10, 30 nM H3K36me2-biotin labeled peptide (Anaspec cat #64442), 0.2 μM alpha-ketoglutaric acid in assay buffer of 50 mM HEPES, pH 7.3, 0.005% Brij35, 0.5 mM TCEP, 0.2 mg/ml BSA, 50 μM sodium L-ascorbate, 5 μM ammonium ironll sulfate. Reaction product was determined quantitatively by AlphaScreen detection after the addition of detection reagents anti-H3K36me1 antibody, AlphaScreen® Streptavidin-coated Donor beads, and AlphaScreen® Protein A Acceptor beads in 50 mM HEPES, pH 7.3, 10 mM NaCl, 0.005% Brij35, 5 mM EDTA, 2 mg/ml BSA to a final 10 μg/ml beads.
The assay reaction was initiated by the following: 3 μl of the mixture of 90 nM H3K36me2-biotin labeled peptide and 0.6 μM alpha-ketoglutaric acid with 3 μl of 11-point serial diluted inhibitor in 3% DMSO were added to each well of 384-well Proxiplate (Perkin Elmer), followed by e addition of 3 μl of 0.9 nM FBXL10 to initiate the reaction. The reaction mixture was incubated at room temp for 1 hr. and terminated by the addition of 3 μl of appropriate dilution of anti-H3K36me1 antibody in 50 mM HEPES, pH 7.3, 10 mM NaCl, 0.005% Brij35, 5 mM EDTA, and 2 mg/ml BSA. […] Plates were read by EnVision Multilabel Reader in AlphaScreen mode after minimum 2 hr incubation at room temp. […]
The ability to inhibit demethylase activity was quantified and the respective IC50 value was determined for substituted triazolylpyridine derivative compounds. […]

| Structure (SMILES) | IC50 [nM] |
| --- | --- |
| Fc1cnccc1-c1nn[nH]c1C(F)(F)F [Example 1, 3-fluoro-4-[5-(trifluoromethyl)-1H-1,2,3-triazol-4-yl]pyridine] | 100 to 1000 |
| Fc1ccc(Cl)cc1Nc1cnccc1-c1nn[nH]c1C(F)(F)F [Example 2, N-(5-chloro-2-fluorophenyl)-4-[5-(trifluoromethyl)-1H-1,2,3-triazol-4-yl]pyridin-3-amine] | 1000 to 10000 |
| FC(F)(F)c1[nH]nnc1-c1ccncc1NCC1CCCc2ccccc21 (stereo not drawn) [Example 3, N-[(1,2,3,4-tetrahydronaphthalen-1-yl)methyl]-4-[5-(trifluoromethyl)-1H-1,2,3-triazol-4-yl]pyridine-3-amine] | 1000 to 10000 |
